According to ChEMBL document CHEMBL1201862, “PubChem BioAssay data set” (2004):
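Step 1: Grow cells in 96-well plates. Step 2: Expose to compound for 48 hours at 5 concentrations. Step 3: Interpolate endpoints linearly; if unreached, use highest concentration. The concentration for 50% growth inhibition is given as GI50.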 Active and inactive are the calls of the source. Rule as the data show it: active = GI50 up to about 1.1 µM and inactive = higher.

Key:
Experiment in all cases: inhibition of tumour cell growth, NCI panel, 48 h
LXFL 529 = tested on: LXFL 529
DLD-1 = tested on: DLD-1
SNB-78 = tested on: SNB-78
DMS-273 = tested on: DMS-273
KM-20L2 = tested on: KM-20L2
DMS-114 = tested on: DMS-114
HOP-18 = tested on: HOP-18
RXF 631 = tested on: RXF 631
XF498 = tested on: XF498

| SMILES | GI50 (LXFL 529) | GI50 (DLD-1) | GI50 (SNB-78) | GI50 (DMS-273) | GI50 (KM-20L2) | GI50 (DMS-114) | GI50 (HOP-18) | GI50 (RXF 631) | GI50 (XF498) |
| --- | --- | --- | --- | --- | --- | --- | --- | --- | --- |
| COC(OC)c1cccc2c1C(=O)CCC1(CC2)OCCCCO1 | > 100 µM (inactive) | > 100 µM (inactive) | > 100 µM (inactive) | > 100 µM (inactive) | > 100 µM (inactive) | > 100 µM (inactive) | > 100 µM (inactive) |  |  |
| O=C1NC(=O)C2C(=O)NC(=O)C1C2c1c(Cl)cccc1Cl (stereo not given) | > 100 µM (inactive) | > 43.3 µM (inactive) | > 100 µM (inactive) | > 42.7 µM (inactive) | > 49.5 µM (inactive) | > 38.4 µM (inactive) | > 100 µM (inactive) | > 100 µM (inactive) | > 100 µM (inactive) |
| CCC(=O)C(C)C1=Nc2nnc(CCCCCCCc3nnc4n3C(=O)C(C(C)C(=O)CC)=N4)n2C1=O (stereo not given) | > 100 µM (inactive) |  |  |  | > 100 µM (inactive) | > 100 µM (inactive) | > 100 µM (inactive) |  | > 100 µM (inactive) |
| COC1(OC)CC2C(=O)N(Cc3ccccc3)C1C(S(=O)(=O)c1ccccc1)C2S(=O)(=O)c1ccccc1 (stereo not given) | 3.48 µM (inactive) | 3.52 µM (inactive) | 18.5 µM (inactive) | 14.6 µM (inactive) | 17.4 µM (inactive) | 3.7 µM (inactive) | 17.2 µM (inactive) | 16.7 µM (inactive) |  |
| NC1=C(O)c2cccc3cccc(c23)C1=O | > 100 µM (inactive) | > 100 µM (inactive) | > 100 µM (inactive) | > 100 µM (inactive) | > 100 µM (inactive) | > 100 µM (inactive) | > 100 µM (inactive) | > 100 µM (inactive) |  |
| CCN(CC)CC(=O)O[C@]1(CC)C(=O)OCc2c1cc1n(c2=O)Cc2cc3ccccc3nc2-1 | 0.404 µM (active) | 0.916 µM (active) | 0.953 µM (active) | < 0.01 µM (active) | 0.152 µM (active) | 0.0142 µM (active) | 0.0908 µM (active) |  | 0.2 µM (active) |
| CC(=O)NNc1nc(C)c(C(=O)NNC(=O)C(=O)Nc2ccc(Cl)cc2Cl)s1 | 29.4 µM (inactive) | 38.4 µM (inactive) | 36.6 µM (inactive) |  | 40.1 µM (inactive) | 33.2 µM (inactive) |  |  | 30.1 µM (inactive) |
| Cc1cccc(N2C(=O)C(=O)C(c3nc4ccccc4s3)C(=O)C2=O)c1C | > 100 µM (inactive) | > 100 µM (inactive) | > 100 µM (inactive) | > 100 µM (inactive) | > 100 µM (inactive) | > 100 µM (inactive) | > 100 µM (inactive) | > 100 µM (inactive) |  |
| CC(=O)/C(=N\O)C(=O)Nc1ccc(Cl)cc1Cl | > 100 µM (inactive) | > 100 µM (inactive) | > 100 µM (inactive) | > 100 µM (inactive) | > 100 µM (inactive) | > 100 µM (inactive) | 43.1 µM (inactive) |  |  |
| CC1(C)CC(c2c[nH]c3ccccc23)=CC2=Nc3ccccc3C21O (stereo not given) | 47.4 µM (inactive) | > 100 µM (inactive) | 76 µM (inactive) | > 100 µM (inactive) | > 100 µM (inactive) | > 100 µM (inactive) |  |  | 29.2 µM (inactive) |
| Cc1c(C(=O)C/C(=N/NC(=O)c2ccccc2O)C(=O)Nc2ccccc2C(C)C)[n+]([O-])c2ccccc2[n+]1[O-] | 25.1 µM (inactive) | 31.8 µM (inactive) | 84.7 µM (inactive) | 31.8 µM (inactive) | 39.7 µM (inactive) | 23.1 µM (inactive) | > 100 µM (inactive) |  | > 100 µM (inactive) |
| CCCCCCCCCCC(=O)CCCCCCC(=O)O | 18.2 µM (inactive) | 19 µM (inactive) | 69.8 µM (inactive) | 19.3 µM (inactive) |  | 20.3 µM (inactive) | 16.9 µM (inactive) | 19.9 µM (inactive) | 24.3 µM (inactive) |
| COc1cc([C@@H]2c3cc4c(cc3[C@@H](NC(=O)c3ccc(OC(C)=O)cc3)C3COC(=O)[C@@H]32)OCO4)cc(OC)c1O (stereo not given in full) | 9.62 µM (inactive) | 2.96 µM (inactive) | 19.8 µM (inactive) | 0.359 µM (active) | 2.13 µM (inactive) | 1.2 µM (inactive) | > 100 µM (inactive) | 1.76 µM (inactive) | 0.813 µM (active) |
| CN(C)CC1CCCC/C1=N\OC(=O)c1ccccc1 (stereo not given) | > 100 µM (inactive) | > 100 µM (inactive) | > 100 µM (inactive) | > 100 µM (inactive) | > 100 µM (inactive) | > 100 µM (inactive) | > 100 µM (inactive) | > 100 µM (inactive) | > 100 µM (inactive) |
| Cc1c2ccnc(O)c2cc2c(=O)c3cnccc3[nH]c12 | > 100 µM (inactive) | > 100 µM (inactive) | > 100 µM (inactive) | > 100 µM (inactive) | > 100 µM (inactive) | > 100 µM (inactive) | > 100 µM (inactive) |  |  |
| O=C1C(CN2CCCCC2)CCCC1CN1CCCCC1 (stereo not given) | 15 µM (inactive) | 10.1 µM (inactive) | 21.4 µM (inactive) | 43.2 µM (inactive) | 14.4 µM (inactive) |  | 17.2 µM (inactive) |  | 21.2 µM (inactive) |
| CCC1CNC(=O)CC1CC(=O)OC (stereo not given) |  |  | > 100 µM (inactive) |  | > 100 µM (inactive) | > 100 µM (inactive) |  |  |  |
| Cc1c(/C=C2\CC/C(=C\c3[nH]c(C(=O)OC(C)(C)C)c(C)c3C)C2=O)[nH]c(C(=O)OC(C)(C)C)c1C | > 100 µM (inactive) | > 100 µM (inactive) | > 100 µM (inactive) | > 100 µM (inactive) | > 100 µM (inactive) | > 100 µM (inactive) | > 100 µM (inactive) |  | > 100 µM (inactive) |
| COc1cc2cc3c4cc(OC)c(OC)cc4cc[n+]3c(C)c2cc1OC.O=C([O-])CS(=O)(=O)O | 10.8 µM (inactive) | > 100 µM (inactive) | 48.4 µM (inactive) | 63.8 µM (inactive) | > 100 µM (inactive) | 3.34 µM (inactive) | > 100 µM (inactive) |  | 36.4 µM (inactive) |
| O=c1cc(-c2ccccc2F)[nH]c2cc3c(cc12)OCO3 | 0.0403 µM (active) | 0.0441 µM (active) | 0.23 µM (active) | 0.189 µM (active) |  | 0.508 µM (active) | 0.544 µM (active) |  | 1.5 µM (inactive) |
| COc1cc(CO)cc2c1[nH]c1ccccc12 [KOENOLINE] | > 25 µM (inactive) | > 25 µM (inactive) | > 25 µM (inactive) | > 25 µM (inactive) | > 25 µM (inactive) | > 25 µM (inactive) | > 25 µM (inactive) |  | > 25 µM (inactive) |
